Reference: patent publication US20240279176A1, “SUBSTITUTED TRICYCLIC HETEROCYCLIC COMPOUNDS AS METALLO-BETA-LACTAMASE INHIBITORS” (priority 2021, published 2024)
Read-outs that look alike come from different tables or passages of the source.

What was measured:
IMP-1 = IMP-1 (Serratia marcescens, UniProt P52699); test: Enzyme activity: IC50 in fluorescence assay with cephalosporin substrate FC5; format: biochemical; conditions: 100 pM IMP-1, 10 μM FC5, 10 min pre-incubation
Description: (§1) The Class B beta-lactamases activities were measured in the presence of the test inhibitors in a fluorescence assay against an in-house synthesized fluorescent cephalosporin substrate FC5 (Berkel, et. al. J. Med. Chem. 2013, 56(17), 6945). The enzymes (NDM-1, IMP-1) and the substrate were diluted in 20 mM HEPES, pH 7.4, supplemented with 300 mM NaCl and 10 μM ZnSO4. In the assay, the final concentration of enzyme was 50 pM, and 100 pM for NDM-1, and IMP-1 respectively, and the final concentration of FC5 was 1.5 μM for NDM-1 and 10 μM for IMP-1. The test inhibitors/compounds were dissolved in dimethylsulfoxide (DMSO) and diluted in the assay with assay buffer (20 mM HEPES, pH 7.4, supplemented with 5% DMSO, 300 mM NaCl and 10 μM ZnSO4), resulting in a final concentration range of 0.008 μM to 25 μM. The assays were performed in 96-well microplate (flat bottom, black). The test inhibitors were incubated with the MBL enzyme for 10 min at room temperature, followed by addition the substrate and the fluorescence was recorded immediately (λex 380 nm, λem 460 nm) on a microplate reader. Using the initial velocity data plotted against the inhibitor concentration, the half-maximal inhibitory concentrations were calculated by an IC50 curve-fitting model in GraphPad Prism 9 software.

NDM-1 = NDM-1 (Klebsiella pneumoniae, UniProt C7C422); test: as above; format: biochemical; conditions: 50 pM NDM-1, 1.5 μM FC5, 10 min pre-incubation
Sequence of NDM-1 (C7C422 29-270, looked up): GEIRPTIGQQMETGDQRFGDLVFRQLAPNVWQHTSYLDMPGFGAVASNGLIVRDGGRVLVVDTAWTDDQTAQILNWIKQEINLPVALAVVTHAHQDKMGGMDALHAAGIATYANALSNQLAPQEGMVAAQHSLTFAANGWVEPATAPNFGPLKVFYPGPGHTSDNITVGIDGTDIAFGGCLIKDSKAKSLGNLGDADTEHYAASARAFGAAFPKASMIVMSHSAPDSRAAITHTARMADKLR
Description: as §1

[1] = tested on: Klebsiella pneumoniae ATCC BAA-2146; test: Minimum inhibitory concentration (MIC), broth-microdilution (CLSI); format: cell-based; conditions: ATCCBAA2146, compound alone, K. pneumoniae ATCC BAA-2146, read-out: Intrinsic MIC
Description: (§2) The strain included in the study was Klebsiella pneumoniae ATCC BAA-2146 (Himedia®, India) with presence of New Delhi metallo-β-lactamase (NDM-1) gene. The quality control reference strains Escherichia coli ATCC 25922 and Pseudomonas aeruginosa ATCC 27853 were procured from Himedia®, India.
MIC values were identified through broth-microdilution in sterilized 96-well polystyrene flat-bottom microtitre plates (Cole-Parmer®) according to the guideline of the Clinical and Laboratory Standards Institute (CLSI) (CLSI; Methods for dilution antimicrobial susceptibility tests for bacteria that grow aerobically; Clinical Laboratory Standards Institute, M07-A09, 2012). This method involves the use of BBL™ Cation-adjusted Mueller-Hinton II Broth (CA-MHB; BD) and the strain (Klebsiella pneumoniae ATCC BAA-2146) concentration was adjusted to 5×10^5 CFU/mL. After 16-18 h of incubation at various concentrations of Imipenem, Meropenem (Alfa Aesar), or test compounds at 37° C., MIC was defined as the lowest concentration of antibiotic or test compound with no visible growth.

[2] = tested on: Klebsiella pneumoniae ATCC BAA-2146; test: Checkerboard synergy assay in combination with Imipenem; format: cell-based; conditions: K. pneumoniae ATCC BAA-2146; for Fold reduction in Imipenem MIC in the presence of compounds (μg/mL) 4: compound at 4 μg/mL; for Fold reduction in Imipenem MIC in the presence of compounds (μg/mL) 8: compound at 8 μg/mL; for Fold reduction in Imipenem MIC in the presence of compounds (μg/mL) 16: compound at 16 μg/mL; for Fold reduction in Imipenem MIC in the presence of compounds (μg/mL) 32: compound at 32 μg/mL
Description: as §2
(§3) The fold modulation activity of test compounds, in combination with Imipenem or Meropenem, was checked against Klebsiella pneumoniae ATCC BAA-2146 strain by the broth-microdilution checkerboard synergy assay. The plates contained 5×10^5 CFU/mL bacterial inocula and 2-fold serial dilutions of the antibiotics (128-2 μg/mL) as well as test compounds (32-4 μg/mL) in a total volume of 200 μL of CA-MHB. Dimethyl sulfoxide (DMSO, ≤2.5%) was included as vehicle control. Following 16-18 h of incubation at 37° C., the MICs of antibiotics as well as drug combinations were visually inspected.

[3] = tested on: Klebsiella pneumoniae ATCC BAA-2146; test: Checkerboard synergy assay in combination with Meropenem; format: cell-based; conditions: K. pneumoniae ATCC BAA-2146; for Fold reduction in meropenem MIC in the presence of compounds (μg/mL) 4: compound at 4 μg/mL; for Fold reduction in meropenem MIC in the presence of compounds (μg/mL) 8: compound at 8 μg/mL; for Fold reduction in meropenem MIC in the presence of compounds (μg/mL) 16: compound at 16 μg/mL; for Fold reduction in meropenem MIC in the presence of compounds (μg/mL) 32: compound at 32 μg/mL
Description: as §2, §3

Sequence of IMP-1 (P52699 19-246, looked up, species assumed): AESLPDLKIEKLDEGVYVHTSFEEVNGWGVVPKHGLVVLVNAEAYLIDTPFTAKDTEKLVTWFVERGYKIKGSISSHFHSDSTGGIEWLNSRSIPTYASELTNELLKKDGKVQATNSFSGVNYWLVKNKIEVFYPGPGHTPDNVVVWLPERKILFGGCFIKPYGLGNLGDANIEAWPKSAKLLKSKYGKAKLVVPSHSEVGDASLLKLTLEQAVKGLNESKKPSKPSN

SMILES	IC50 (IMP-1) [µM]	IC50 (NDM-1) [µM]	MIC ([1]; Imipenem series) [µg/mL]	MIC ([1]; meropenem series) [µg/mL]	Fold reduction in Imipenem MIC in the presence of compounds (μg/mL) 4 [2] [fold]	Fold reduction in Imipenem MIC in the presence of compounds (μg/mL) 8 [2] [fold]	Fold reduction in Imipenem MIC in the presence of compounds (μg/mL) 16 [2] [fold]	Fold reduction in Imipenem MIC in the presence of compounds (μg/mL) 32 [2] [fold]	Fold reduction in meropenem MIC in the presence of compounds (μg/mL) 4 [3] [fold]	Fold reduction in meropenem MIC in the presence of compounds (μg/mL) 8 [3] [fold]	Fold reduction in meropenem MIC in the presence of compounds (μg/mL) 16 [3] [fold]	Fold reduction in meropenem MIC in the presence of compounds (μg/mL) 32 [3] [fold]
COc1ccc(F)cc1-c1c(C(=O)O)[nH]c2c1CCc1ccccc1-2 [Example 34, 3-(5-Fluoro-2-methoxyphenyl)-4,5-dihydro-1H-benzo[g]indole-2-carboxylic Acid]	0.096	0.103	> 128	> 128	4	8	8	16	4	4	4	16
COc1ccccc1-c1c(C(=O)O)[nH]c2c1CCc1ccccc1-2 [Example 35, 3-(2-methoxyphenyl)-4,5-dihydro-1H-benzo[g]indole-2-carboxylic Acid]	1.81	0.248	> 128	> 128	2	4	4	8	4	4	8	8
COc1ccc(-c2c(C(=O)O)[nH]c3c2CCc2ccccc2-3)cc1 [Example 36, 3-(4-Methoxyphenyl)-4,5-dihydro-1H-benzo[g]indole-2-carboxylic Acid]	18.3	2.65	> 64	> 64	2	2	2	4	2	2	4	4
O=C(O)c1[nH]c2c(c1-c1ccc(F)c(F)c1)CCc1ccccc1-2 [Example 37, 3-(3,4-Difluorophenyl)-4,5-dihydro-1H-benzo[g]indole-2-carboxylic Acid]	3.86	0.342	> 64	> 64	2	2	4	4	4	4	4	4
COc1ccc(Cl)cc1-c1c(C(=O)O)[nH]c2c1CCc1ccccc1-2 [Example 38, 3-(5-Chloro-2-methoxyphenyl)-4,5-dihydro-1H-benzo[g]indole-2-carboxylic Acid]	0.026	0.026	> 128	> 128	4	4	8	8	4	4	4	8
CC(C)(C)c1ccc(-c2c(C(=O)O)[nH]c3c2CCc2ccccc2-3)cc1 [Example 39, 3-(4-(tert-Butyl)phenyl)-4,5-dihydro-1H-benzo[g]indole-2-carboxylic Acid]	72.1	0.591	> 64	> 64	2	4	4	4	4	4	4	4
O=C(O)c1[nH]c2c(c1-c1ccccc1F)CCc1ccccc1-2 [Example 41, 3-(2-Fluorophenyl)-4,5-dihydro-1H-benzo[g]indole-2-carboxylic Acid]	1.34	0.256	> 128	> 128	4	4	8	8	4	4	4	8
O=C(O)c1[nH]c2c(c1-c1cccc(F)c1)CCc1ccccc1-2 [Example 42, 3-(3-Fluorophenyl)-4,5-dihydro-1H-benzo[g]indole-2-carboxylic Acid]	1.15	0.079	> 128	> 128	4	4	8	8	4	4	4	8
